In US12662489B2 (Sitryx Therapeutics Limited, priority 2023, dated 2026):

Legend:
[1] = biological target: T1, MTHFD2 recombinant human enzyme (Homo sapiens, UniProt P13995); assay: MTHFD2 inhibition assay (NAD(P)H-Glo luminescence); details: for MTHFD1/MTHFD2 IC50 ratio: selectivity of MTHFD2 inhibition over MTHFD1, band
T1 sequence (P13995 36-350): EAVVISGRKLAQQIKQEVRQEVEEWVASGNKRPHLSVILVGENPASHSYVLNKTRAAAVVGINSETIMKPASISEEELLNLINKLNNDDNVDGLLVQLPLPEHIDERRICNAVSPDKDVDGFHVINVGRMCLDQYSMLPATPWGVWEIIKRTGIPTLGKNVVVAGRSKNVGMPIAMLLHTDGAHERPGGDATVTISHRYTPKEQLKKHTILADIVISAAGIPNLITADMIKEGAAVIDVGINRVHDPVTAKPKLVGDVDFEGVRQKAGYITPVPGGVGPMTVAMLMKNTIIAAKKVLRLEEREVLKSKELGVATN

[2] = biological target: T2, MTHFD1 recombinant human enzyme (Homo sapiens, UniProt P11586); assay: MTHFD1 inhibition assay (NAD(P)H-Glo luminescence); details: MTHFD1 IC50, recombinant human enzyme 200 nM, NADP, band
T2 sequence (P11586 2-291 limits assumed): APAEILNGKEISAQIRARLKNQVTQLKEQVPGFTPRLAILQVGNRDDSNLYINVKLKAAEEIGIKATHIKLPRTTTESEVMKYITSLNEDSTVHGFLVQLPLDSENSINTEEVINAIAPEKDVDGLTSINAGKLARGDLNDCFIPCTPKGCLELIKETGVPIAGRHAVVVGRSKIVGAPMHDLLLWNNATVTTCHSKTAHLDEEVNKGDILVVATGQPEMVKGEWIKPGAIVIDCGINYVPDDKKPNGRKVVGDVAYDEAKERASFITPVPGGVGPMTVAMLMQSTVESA

SMILES | IC50 [1] | MTHFD1/MTHFD2 IC50 ratio [1] | IC50 [2]
COC[C@H]1CN(c2cc(C)c3c4c(c(=O)oc3c2C)CN(C(=O)c2ccc(C(=O)NS(=O)(=O)N3CCCC3)c(N3C5CCC3CC5)c2F)CC4)CCN1C [Example 97, (R)-2-(7-azabicyclo[2.2.1]heptan-7-yl)-3-fluoro-4-(8-(3-(methoxymethyl)-4-methylpiperazin-1-yl)-7,10-dimethyl-5-oxo-1,3,4,5-tetrahydro-2H-chromeno[3,4-c]pyridine-3-carbonyl)-N-(pyrrolidin-1-ylsulfonyl)benzamide] | 10 to 100 nM | F (<3) | 10 to 100 nM
COC[C@H]1CN(c2cc(C)c3c4c(c(=O)oc3c2C)CN(C(=O)c2cc(OC3CCCC3)c(C(=O)NS(=O)(=O)N(C)C)c(N3CCCC3)c2)CC4)CCN1C [Example 127, (R)-2-(cyclopentyloxy)-N-(N,N-dimethylsulfamoyl)-4-(8-(3-(methoxymethyl)-4-methylpiperazin-1-yl)-7,10-dimethyl-5-oxo-1,3,4,5-tetrahydro-2H-chromeno[3,4-c]pyridine-3-carbonyl)-6-(pyrrolidin-1-yl)benzamide] | 10 to 100 nM | H (>9.0 to 30) | 100 to 1000 nM
COC[C@H]1CN(c2ccc3c4c(c(=O)oc3c2C)CN(C(=O)c2cc(N(C)C)c(C(=O)NS(=O)(=O)N3CCC5(CC3)CC5)cc2F)CC4)CCN1C [Example 189, (R)-N-((6-azaspiro[2.5]octan-6-yl)sulfonyl)-2-(dimethylamino)-5-fluoro-4-(8-(3-(methoxymethyl)-4-methylpiperazin-1-yl)-7-methyl-5-oxo-1,3,4,5-tetrahydro-2H-chromeno[3,4-c]pyridine-3-carbonyl)benzamide] | 100 to 1000 nM | H (>9.0 to 30) | 1000 to 5000 nM
COC[C@H]1CN(c2ccc3c4c(c(=O)oc3c2Cl)CN(C(=O)c2ccc(C(=O)NS(=O)(=O)N3CCCC3)c(OC3CCC3)c2)CC4)CCN1C [Example 14, (R)-4-(7-chloro-8-(3-(methoxymethyl)-4-methylpiperazin-1-yl)-5-oxo-1,3,4,5-tetrahydro-2H-chromeno[3,4-c]pyridine-3-carbonyl)-2-cyclobutoxy-N-(pyrrolidin-1-ylsulfonyl)benzamide] | 10 to 100 nM | F (<3) | 10 to 100 nM
Cc1c(N2CCN(C)[C@@H](COC(C)C)C2)ccc2c3c(c(=O)oc12)CN(C(=O)c1ccc(C(=O)NS(=O)(=O)N2CCCC2)c(OC2CCC2)c1F)CC3 [Example 192, (R)-2-cyclobutoxy-3-fluoro-4-(8-(3-(isopropoxymethyl)-4-methylpiperazin-1-yl)-7-methyl-5-oxo-1,3,4,5-tetrahydro-2H-chromeno[3,4-c]pyridine-3-carbonyl)-N-(pyrrolidin-1-ylsulfonyl)benzamide] | 100 to 1000 nM | F (<3) | 100 to 1000 nM
CCOc1cc(C(=O)N2CCc3c(c(=O)oc4c(C)c(N5CCN(C)[C@@H](COC)C5)cc(C)c34)C2)cc(C(F)(F)F)c1C(=O)NS(=O)(=O)N1CCCC1 [Example 160, (R)-2-ethoxy-4-(8-(3-(methoxymethyl)-4-methylpiperazin-1-yl)-7,10-dimethyl-5-oxo-1,3,4,5-tetrahydro-2H-chromeno[3,4-c]pyridine-3-carbonyl)-N-(pyrrolidin-1-ylsulfonyl)-6-(trifluoromethyl)benzamide] | 100 to 1000 nM | H (>9.0 to 30) | 1000 to 5000 nM
COC[C@H]1CN(c2ccc3c4c(c(=O)oc3c2Cl)CN(C(=O)c2ccc(C(=O)NS(=O)(=O)N(C)C)c(OC3CCC3)c2F)CC4)CCN1C [Example 52, (R)-4-(7-chloro-8-(3-(methoxymethyl)-4-methylpiperazin-1-yl)-5-oxo-1,3,4,5-tetrahydro-2H-chromeno[3,4-c]pyridine-3-carbonyl)-2-cyclobutoxy-N-(N,N-dimethylsulfamoyl)-3-fluorobenzamide] | 1 to 10 nM | – | 1 to 10 nM
COC[C@H]1CN(c2cc(Cl)c3c4c(c(=O)oc3c2C)CN(C(=O)c2cc(OC3CC3)c(C(=O)NS(=O)(=O)N(C)C)cc2F)CC4)CCN1C [Example 306, (R)-4-(10-chloro-8-(3-(methoxymethyl)-4-methylpiperazin-1-yl)-7-methyl-5-oxo-1,3,4,5-tetrahydro-2H-chromeno[3,4-c]pyridine-3-carbonyl)-2-cyclopropoxy-N-(N,N-dimethylsulfamoyl)-5-fluorobenzamide] | 10 to 100 nM | J (>30) | 100 to 1000 nM

Other lines, results leading:

IC50 [1] | MTHFD1/MTHFD2 IC50 ratio [1] | IC50 [2] | SMILES
10 to 100 nM | G (^ 3 to 9.0) | 100 to 1000 nM | COC[C@H]1CN(c2cc(Cl)c3c4c(c(=O)oc3c2C)CN(C(=O)c2cc(N(C)C)c(C(=O)NS(=O)(=O)N3CCCCC3)cc2F)CC4)CCN1C [Example 275, (R)-4-(10-chloro-8-(3-(methoxymethyl)-4-methylpiperazin-1-yl)-7-methyl-5-oxo-1,3,4,5-tetrahydro-2H-chromeno[3,4-c]pyridine-3-carbonyl)-2-(dimethylamino)-5-fluoro-N-(piperidin-1-ylsulfonyl)benzamide]
10 to 100 nM | F (<3) | 10 to 100 nM | COC[C@H]1CN(c2cc(C)c3c4c(c(=O)oc3c2C)CN(C(=O)c2ccc(C(=O)NS(=O)(=O)N3CC5CC5C3)c(OC3CC3)c2F)CC4)CCN1C (stereo partly drawn) [Example 207, N-((3-azabicyclo[3.1.0]hexan-3-yl)sulfonyl)-2-cyclopropoxy-3-fluoro-4-(8-((R)-3-(methoxymethyl)-4-methylpiperazin-1-yl)-7,10-dimethyl-5-oxo-1,3,4,5-tetrahydro-2H-chromeno[3,4-c]pyridine-3-carbonyl)benzamide]
10 to 100 nM | G (^ 3 to 9.0) | 100 to 1000 nM | COC[C@H]1CN(c2ccc3c4c(c(=O)oc3c2C)CN(C(=O)c2ccc(C(=O)NS(=O)(=O)C3(C)CC3)c(N(C)C)c2F)CC4)CCN1C [Example 137, (R)-2-(dimethylamino)-3-fluoro-4-(8-(3-(methoxymethyl)-4-methylpiperazin-1-yl)-7-methyl-5-oxo-1,3,4,5-tetrahydro-2H-chromeno[3,4-c]pyridine-3-carbonyl)-N-((1-methylcyclopropyl)sulfonyl)benzamide]
10 to 100 nM | H (>9.0 to 30) | 1000 to 5000 nM | COC[C@H]1CN(c2cc(Cl)c3c4c(c(=O)oc3c2C)CN(C(=O)c2cc(N(C)C)c(C(=O)NS(=O)(=O)N3CCCCC35COC5)cc2F)CC4)CCN1C [Example 271, (R)-N-((2-oxa-5-azaspiro[3.5]nonan-5-yl)sulfonyl)-4-(10-chloro-8-(3-(methoxymethyl)-4-methylpiperazin-1-yl)-7-methyl-5-oxo-1,3,4,5-tetrahydro-2H-chromeno[3,4-c]pyridine-3-carbonyl)-2-(dimethylamino)-5-fluorobenzamide]
10 to 100 nM | H (>9.0 to 30) | 100 to 1000 nM | COC[C@H]1CN(c2cc(C)c3c4c(c(=O)oc3c2C)CN(C(=O)c2cc(C)c(C(=O)NS(=O)(=O)N(C)C)c(N3CCCC3)c2)CC4)CCN1C [Example 106, (R)-N-(N,N-dimethylsulfamoyl)-4-(8-(3-(methoxymethyl)-4-methylpiperazin-1-yl)-7,10-dimethyl-5-oxo-1,3,4,5-tetrahydro-2H-chromeno[3,4-c]pyridine-3-carbonyl)-2-methyl-6-(pyrrolidin-1-yl)benzamide]
10 to 100 nM | F (<3) | 1 to 10 nM | COC[C@H]1CN(c2cc(C)c3c4c(c(=O)oc3c2C)CN(C(=O)c2ccc(C(=O)NS(=O)(=O)N(C)C)c(N3CC5CCC3C5)c2)CC4)CCN1C (stereo partly drawn) [Example 116, 2-(2-azabicyclo[2.2.1]heptan-2-yl)-N-(N,N-dimethylsulfamoyl)-4-(8-((R)-3-(methoxymethyl)-4-methylpiperazin-1-yl)-7,10-dimethyl-5-oxo-1,3,4,5-tetrahydro-2H-chromeno[3,4-c]pyridine-3-carbonyl)benzamide]
1 to 10 nM | F (<3) | 1 to 10 nM | COC[C@H]1CN(c2cc(C)c3c4c(c(=O)oc3c2C)CN(C(=O)c2ccc(C(=O)NS(=O)(=O)N(C)C)c(O[C@H]3C[C@@H]5C[C@@H]5C3)c2F)CC4)CCN1C [Example 67, 2-(((1R,3s,5S)-bicyclo[3.1.0]hexan-3-yl)oxy)-N-(N,N-dimethylsulfamoyl)-3-fluoro-4-(8-((R)-3-(methoxymethyl)-4-methylpiperazin-1-yl)-7,10-dimethyl-5-oxo-1,3,4,5-tetrahydro-2H-chromeno[3,4-c]pyridine-3-carbonyl)benzamide]
1 to 10 nM | G (^ 3 to 9.0) | 10 to 100 nM | COC[C@H]1CN(c2cc(C)c3c4c(c(=O)oc3c2C)CN(C(=O)c2ccc(C(=O)NS(=O)(=O)N(C)C)c(N(C)C3CCC3)c2)CC4)CCN1C [Example 55, (R)-2-(cyclobutyl(methyl)amino)-N-(N,N-dimethylsulfamoyl)-4-(8-(3-(methoxymethyl)-4-methylpiperazin-1-yl)-7,10-dimethyl-5-oxo-1,3,4,5-tetrahydro-2H-chromeno[3,4-c]pyridine-3-carbonyl)benzamide]
